“And” between values parts separate entries of the source, which are not always exact repeats. Identical values can stand only once. Like-named read-outs stand apart in the source and are kept apart here.
Tests used:
Lactobacillus plantarum [1] = assay: Minimal Inhibitory Concentration (MIC), two-fold dilution series in 96 well microplate, antimicrobial used alone; assay type: cell-based; settings: pH 6; for MIC: Lactiplantibacillus plantarum
Text: While there are various methods known to individuals skilled in the art for measuring levels of antimicrobial activity, in the following examples the endpoint used is known as the Minimal Inhibitory Concentration, or MIC. This is the lowest concentration of a substance or substances which can achieve complete inhibition of growth.
In order to determine the Minimal Inhibitory Concentration, a two-fold dilution series of the antimicrobial is constructed with the dilutions being made in growth media. The dilutions are made in a 96 well microplate such that each well has a final volume of 280 μl of media and antimicrobial. […] After the dilution series is constructed the wells receive an inoculum of microbe suspended in growth media such that the final concentration of microbes in the well is ˜5×10^5 cfu/ml. In these examples the test microbe used is Lactobacillus plantarum. The cultures are incubated at an appropriate temperature for 18-24 hours, and the wells scored as positive or negative for growth based on a visual examination for turbid wells. A turbid well indicates growth has occurred.
Minimal inhibitory concentrations were determined for both chlorine dioxide and citric acid at pH 6 using the protocol described above with Lactobacillus plantarum as the test microbe. Checkerboard synergy plates were constructed as described, the wells inoculated to a final concentration of ˜5×10^5 cfu/ml, incubated for 18-24 hours, and then scored visually for growth/no growth. […] Minimal inhibitory concentrations were determined for both chlorine dioxide and sodium propionate at pH 6 using the protocol described above with Lactobacillus plantarum as the test microbe. Checkerboard synergy plates wore constructed as described, the wells inoculated to a final concentration of ˜5×10^5 cfu/ml, incubated for 18-24 hours, and then scored visually for growth/no growth.
(§1) Minimal inhibitory concentrations were determined for both chlorine dioxide and potassium benzoate at pH 6 using the protocol described above with Lactobacillus plantarum as the test microbe. Checkerboard synergy plates were constructed as described, the wells inoculated to a final concentration of ˜5×10^5 cfu/ml, incubated for 18-24 hours, and then scored visually for growth/no growth.
as §1, with “ascorbic acid” for “potassium benzoate”

Lactobacillus plantarum [2] = assay: Checkerboard synergy plates (MIC in combination, Synergy Index by Kull et al.); assay type: cell-based; settings: pH 6
Experimental: Minimal inhibitory concentrations were determined for both chlorine dioxide and citric acid at pH 6 using the protocol described above with Lactobacillus plantarum as the test microbe. Checkerboard synergy plates were constructed as described, the wells inoculated to a final concentration of ˜5×10^5 cfu/ml, incubated for 18-24 hours, and then scored visually for growth/no growth. […] Minimal inhibitory concentrations were determined for both chlorine dioxide and sodium propionate at pH 6 using the protocol described above with Lactobacillus plantarum as the test microbe. Checkerboard synergy plates wore constructed as described, the wells inoculated to a final concentration of ˜5×10^5 cfu/ml, incubated for 18-24 hours, and then scored visually for growth/no growth. […] Minimal inhibitory concentrations were determined for both chlorine dioxide and potassium benzoate at pH 6 using the protocol described above with Lactobacillus plantarum as the test microbe. Checkerboard synergy plates were constructed as described, the wells inoculated to a final concentration of ˜5×10^5 cfu/ml, incubated for 18-24 hours, and then scored visually for growth/no growth. […] Minimal inhibitory concentrations were determined for both chlorine dioxide and ascorbic acid at pH 6 using the protocol described above with Lactobacillus plantarum as the test microbe. […]

Weisella confusa = settings: cited from earlier work
fermentation = settings: cited from earlier work

Molecule: O=C1O[C@H]([C@@H](O)CO)C(O)=C1O [Ascorbic Acid, ascorbic acid]
- MIC (Lactobacillus plantarum [1]; read-out: Ascorbic Acid MIC (QB), used alone): 10 mg/mL

Molecule: O=C(O)CC(O)(CC(=O)O)C(=O)O [Citric Acid, citric acid]
- MIC (Lactobacillus plantarum [1]; read-out: Citric Acid MIC (QB), used alone): 100 mg/mL
- Citric Acid MIC (QB), used alone (Lactobacillus plantarum [1]): 100000 ppm
- Citric Acid MIC (Qb), used in combination (Lactobacillus plantarum [2]; in combination with ClO2): 390-12,500 ppm

Molecule: [O][Cl+][O-] [ClO2, chlorine dioxide]
- ClO2 MIC (QA), used alone (Lactobacillus plantarum [1]; Table 1 (citric acid series)): 100 ppm
- ClO2 MIC (QA), used alone (Lactobacillus plantarum [1]; Table 2 (sodium propionate series)): 115 ppm
- ClO2 MIC (QA), used alone (Lactobacillus plantarum [1]; Table 3 (potassium benzoate series)): 115 ppm and 130 ppm
- ClO2 MIC (QA), used alone (Lactobacillus plantarum [1]; Table 3 (potassium benzoate series), listed as chlorine dioxide): 115 ppm and 130 ppm
- ClO2 MIC (QA), used alone (Lactobacillus plantarum [1]; Table 4 (ascorbic acid series)): 67.5 ppm
- ClO2 MIC (Qa), used in combination (Lactobacillus plantarum [2]; in combination with citric acid): 15-60 ppm

Molecule: O=C([O-])c1ccccc1.[K+] [Potassium Benzoate, potassium benzoate]
- Potassium Benzoate MIC (QB), used alone (Lactobacillus plantarum [1]): 100000 ppm
- Potassium Benzoate MIC (QB), used alone (Lactobacillus plantarum [1]; listed as potassium benzoate): 100,000 ppm

Molecule: CCC(=O)[O-].[Na+] [Sodium Propionate, sodium propionate]
- Sodium Propionate MIC (QB), used alone (Lactobacillus plantarum [1]): 100000 ppm
- Sodium Propionate MIC (QB), used alone (Lactobacillus plantarum [1]; listed as sodium propionate): 100,000 ppm

Molecule: Virginiamycin
- concentration required to inhibit growth of Weisella confusa (Weisella confusa): over 25 mg/L
- concentration that will suppress fermentation (fermentation): over 2 mg/L
